Structures are written as SMILES.

This passage reports IC50 results from US20240208994A1, “PLASMA KALLIKREIN INHIBITORS” (Merck Sharp & Dohme LLC, priority 2021, published 2024).

One assay concerns the target T1, Human plasma kallikrein (Homo sapiens, UniProt P03952).
T1 construct: yields a heavy chain (371 amino acids) and a light chain (248 amino acids); purchased Enzyme Research Laboratories
Put plainly: Plasma Kallikrein Assay. Conditions: purified Human plasma kallikrein 0.5 nM, substrate Acetyl-K-P-R-AFC, HEPES pH 7.4, fluorescence 405 Ex/510 Em; read-out: PKal IC50. In kind it is biochemical. How it is done: (§1) The effectiveness of a compound of the present invention as an inhibitor of plasma kallikrein can be determined using a relevant purified serine protease, and an appropriate synthetic substrate. The rate of hydrolysis of the chromogenic or fluorogenic substrate by the relevant serine protease was measured both in the absence and presence of compounds of the present invention. Assays were conducted at rt or at 37° C. […] A decrease in the rate of fluorescence change in the presence of inhibitor is indicative of enzyme inhibition. Such methods are known to one skilled in the art. The results of this assay are expressed as the half-maximal inhibitory concentrations (IC50), or the inhibitory constant, Ki.
Plasma kallikrein determinations were made in 50 mM HEPES buffer at pH 7.4 containing 150 mM NaCl, 5 mM CaCl2), and 0.1% PEG 8000 (polyethylene glycol: Fisher Scientific). Determinations were made using purified Human plasma kallikrein at a final concentration of 0.5 nM (Enzyme Research Laboratories) and the synthetic substrate, Acetyl-K-P-R-AFC (Sigma #C6608) at a concentration of […].
Activity assays were performed by diluting a stock solution of substrate at least tenfold to a final concentration ≤0.2 Km into a solution containing enzyme or enzyme equilibrated with inhibitor. Times required to achieve equilibration between enzyme and inhibitor were determined in control experiments. The reactions were performed under linear progress curve conditions and fluorescence increase measured at 405 Ex/510 Em nm. Values were converted to percent inhibition of the control reaction (after subtracting 100% Inhibition value). IC50 was determined by inflection point from a four parameter logistic curve fit. Ki was calculated using the Cheng Prusoff equation, Ki=IC50/(1+([S]/Km)).

The next assay concerns the target human factor XIa (Homo sapiens, UniProt P03951). Put plainly: Factor XIa Assay. The format is biochemical. Particulars: human factor XIa 0.04 nM, 30 min pre-incubation at 25° C., substrate GPR-AFC, pH 7.4, 60 min incubation; read-out: FXIa IC50. How it is done: as §1, with “Coagulation factor XIa” for “plasma kallikrein”
Compounds were pre-incubated for 30 min at 25° C. with human (0.04 nM) factor XIa in 50 mM HEPES buffer with 150 mM sodium chloride, 5 mM calcium chloride, 0.1% PEG 8000, pH 7.4. factor XIa enzymatic activity was determined by addition of the substrate glycine-proline-arginine-7-amido-4-trifluoromethylcoumarin (GPR-AFC) and measurement of the fluorescence at 400/505 nm after a 60 min incubation at 25° C. The % inhibition for each data point was calculated from the data and analyzed using the log (inhibitor) vs. response four parameters equation to determine the half-maximal inhibitory concentrations (IC50). The IC50 were converted to equilibrium inhibitory constants (Ki) using the Cheng-Prusoff equation.

Chain of human factor XIa (P03951 388-625 limits assumed): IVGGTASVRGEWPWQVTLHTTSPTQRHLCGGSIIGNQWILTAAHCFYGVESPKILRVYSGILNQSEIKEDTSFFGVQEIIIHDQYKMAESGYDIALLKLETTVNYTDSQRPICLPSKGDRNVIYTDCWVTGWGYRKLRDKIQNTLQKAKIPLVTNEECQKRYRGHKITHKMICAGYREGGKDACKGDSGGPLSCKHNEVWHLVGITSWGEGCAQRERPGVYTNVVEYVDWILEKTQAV
Chain of human factor XIa (P03951 19-387 partner limits assumed): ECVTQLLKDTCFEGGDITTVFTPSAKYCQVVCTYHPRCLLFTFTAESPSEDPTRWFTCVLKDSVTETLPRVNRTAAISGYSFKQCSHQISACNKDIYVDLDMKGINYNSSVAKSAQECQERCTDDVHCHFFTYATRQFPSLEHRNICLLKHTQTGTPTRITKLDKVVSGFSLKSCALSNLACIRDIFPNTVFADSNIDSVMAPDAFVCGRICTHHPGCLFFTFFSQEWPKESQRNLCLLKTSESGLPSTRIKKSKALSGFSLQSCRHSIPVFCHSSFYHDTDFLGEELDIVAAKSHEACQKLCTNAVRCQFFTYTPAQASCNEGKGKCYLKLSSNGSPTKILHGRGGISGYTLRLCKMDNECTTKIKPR
T1 sequence (P03952 391-638 limits assumed): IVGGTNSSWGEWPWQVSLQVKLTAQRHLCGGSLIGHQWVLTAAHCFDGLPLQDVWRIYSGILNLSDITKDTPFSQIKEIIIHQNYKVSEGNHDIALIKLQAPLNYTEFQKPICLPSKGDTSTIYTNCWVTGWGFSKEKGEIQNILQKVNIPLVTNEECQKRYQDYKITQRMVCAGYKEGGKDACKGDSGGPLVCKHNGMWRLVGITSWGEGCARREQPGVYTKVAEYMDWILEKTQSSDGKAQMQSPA
T1 sequence (P03952 20-390 partner limits assumed): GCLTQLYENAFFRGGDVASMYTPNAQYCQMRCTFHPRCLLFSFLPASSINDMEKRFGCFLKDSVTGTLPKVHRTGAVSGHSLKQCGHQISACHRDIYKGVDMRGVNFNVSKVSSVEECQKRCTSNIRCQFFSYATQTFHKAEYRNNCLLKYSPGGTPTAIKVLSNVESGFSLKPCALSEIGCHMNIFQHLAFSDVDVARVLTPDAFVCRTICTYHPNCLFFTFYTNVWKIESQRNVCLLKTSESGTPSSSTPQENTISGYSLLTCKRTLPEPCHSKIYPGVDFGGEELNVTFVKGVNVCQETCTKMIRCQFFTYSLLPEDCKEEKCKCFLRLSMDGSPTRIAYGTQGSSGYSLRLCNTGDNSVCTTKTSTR

In the case of `Nc1c2c(nn1CC(=O)N1CC[C@@]3(C1)OC(=O)Nc1ccc(Cl)c(F)c13)-c1ccccc1C2` [Example 14, (R)-1′-(2-(3-Aminoindeno[1,2-c]pyrazol-2(4H)-y1)acetyl)-6-chloro-5-fluorospiro[benzo[d] [1,3]oxazine-4,3′-pyrrolidin]-2(1H)-one], the IC50 (as a rule, the concentration at which inhibition is half-maximal) is 0.0033 µM on Human plasma kallikrein and 0.029 µM on human factor XIa.
Taken in the same sequence, the figures for `Nc1cc(-c2c(F)cc(F)cc2F)nn1CC(=O)N1CC[C@@]2(C1)OC(=O)Nc1ccc(Cl)c(F)c12` [Example 59, (R)-1′-(2-(5-Amino-3-(2,4,6-trifluorophenyl)-1H-pyrazol-1-yl)acetyl)-6-chloro-5-fluorospiro[benzo[d][1,3]oxazine-4,3′-pyrrolidin]-2(1H)-one] were 0.0037 µM and 0.195 µM.
Taken in the same sequence, the figures for `Nc1cc(-c2ccccc2OC(F)(F)F)nn1CC(=O)N1CC[C@@]2(C1)OC(=O)Nc1ccc(Cl)c(F)c12` [Example 55, (R)-1′-(2-(5-Amino-3-(2-(trifluoromethoxy)phenyl)-1H-pyrazol-1-yl)acetyl)-6-chloro-5-fluorospiro[benzo[d][1,3]oxazine-4,3′-pyrrolidin]-2(1H)-one] were 0.0025 µM and 0.287 µM.
Taken in the same sequence, the figures for `Nc1cc(-c2ccccc2C(F)(F)F)nn1CC(=O)N1CC[C@@]2(C1)OC(=O)Nc1ccc(Cl)c(F)c12` [Example 50, (R)-1′-(2-(5-Amino-3-(2-(trifluoromethyl)phenyl)-1H-pyrazol-1-yl)acetyl)-6-chloro-5-fluorospiro[benzo[d][1,3]oxazine-4,3′-pyrrolidin]-2(1H)-one] were 0.0054 µM and 0.422 µM.
On to `Nc1cc(C2CC2)nn1CC(=O)N1CCC[C@@]2(C1)OC(=O)Nc1ccc(Cl)c(F)c12` [Example 28, (R)-1′-(2-(5-Amino-3-cyclopropyl-1H-pyrazol-1-yl)acetyl)-6-chloro-5-fluorospiro[benzo[d][1,3]oxazine-4,3′-piperidin]-2(1H)-one], for which the values for the concentration for half-maximal inhibition (IC50) at Human plasma kallikrein and at human factor XIa were 0.0167 µM and 0.055 µM, respectively.
The like results for `Nc1cc(-c2ccc(F)c(F)c2)nn1CC(=O)N1CC[C@@]2(C1)OC(=O)Nc1ccc(Cl)c(F)c12` [Example 47, (R)-1′-(2-(5-Amino-3-(3,4-difluorophenyl)-1H-pyrazol-1-yl)acetyl)-6-chloro-5-fluorospiro[benzo[d][1,3]oxazine-4,3′-pyrrolidin]-2(1H)-one] were, in that order, 0.0143 µM and 0.739 µM.
The like results for `Nc1c2c(nn1CC(=O)N1CCC[C@@]3(C1)OC(=O)Nc1ccc(Cl)c(F)c13)-c1ccccc1C2` [Example 18, (R)-1′-(2-(3-Aminoindeno[1,2-c]pyrazol-2(4H)-yl)acetyl)-6-chloro-5-fluorospiro[benzo[d][1,3]oxazine-4,3′-piperidin]-2(1H)-one] were, in that order, 0.0024 µM and 0.088 µM.
The like results for `Nc1cc(-c2ccccc2Cl)nn1CC(=O)N1CC[C@@]2(C1)OC(=O)Nc1ccc(Cl)c(F)c12` [Example 43, (R)-1′-(2-(5-Amino-3-(2-chlorophenyl)-1H-pyrazol-1-yl)acetyl)-6-chloro-5-fluorospiro[benzo[d][1,3]oxazine-4,3′-pyrrolidin]-2(1H)-one] were, in that order, 0.0032 µM and 0.187 µM.
Consider `Nc1cc(-c2ccccn2)nn1CC(=O)N1CC[C@@]2(C1)OC(=O)Nc1ccc(Cl)c(F)c12` [Example 38, (R)-1′-(2-(5-Amino-3-(pyridin-2-y1)-1H-pyrazol-1-yl)acetyl)-6-chloro-5-fluorospiro[benzo[d][1,3]oxazine-4,3′-pyrrolidin]-2(1H)-one], for which the results for the IC50 on Human plasma kallikrein and at human factor XIa were 0.028 µM and 0.665 µM, respectively.
Take `Nc1cc(C2CCCC2)nn1CC(=O)N1CC[C@@]2(C1)OC(=O)Nc1ccc(Cl)c(F)c12` [Example 4, (R)-1′-(2-(5-Amino-3-cyclopenty1-1H-pyrazol-1-yl)acetyl)-6-chloro-5-fluorospiro[benzo[d][1,3]oxazine-4,3′-pyrrolidin]-2(1H)-one]: the IC50 on Human plasma kallikrein was 0.0163 µM; at human factor XIa, 0.315 µM.
Turning to `Nc1c(Cl)c(-c2ncccn2)nn1CC(=O)N1CCC[C@@]2(C1)OC(=O)Nc1ccc(Cl)c(F)c12` [Example 35, (R)-1′-(2-(5-Amino-4-chloro-3-(pyrimidin-2-y1)-1H-pyrazol-1-yl)acetyl)-6-chloro-5-fluorospiro[benzo[d][1,3]oxazine-4,3′-piperidin]-2(1H)-one], the figures for the IC50 at Human plasma kallikrein and at human factor XIa were 0.0245 µM and 0.28 µM, respectively.
The like results for `CC1(C)CCc2c1nn(CC(=O)N1CC[C@@]3(C1)OC(=O)Nc1ccc(Cl)c(F)c13)c2N` [Example 15, (R)-1′-(2-(3-Amino-6,6-dimethyl-5,6-dihydrocyclopenta[c]pyrazo1-2(4H)-yl)acetyl)-6-chloro-5-fluorospiro[benzo[d][1,3]oxazine-4,3′-pyrrolidin]-2(1H)-one] were, in that order, 0.0406 µM and 0.1 µM.
Regarding `Nc1c(Cl)c(-c2ncc(F)cc2F)nn1CC(=O)N1CCC[C@@]2(C1)OC(=O)Nc1ccc(Cl)c(F)c12` [Example 33, (R)-1′-(2-(5-Amino-4-chloro-3-(3,5-difluoropyridin-2-y1)-1H-pyrazol-1-yl)acetyl)-6-chloro-5-fluorospiro[benzo[d][1,3]oxazine-4,3′-piperidin]-2(1H)-one], the IC50 on Human plasma kallikrein came out at 0.0077 µM; on human factor XIa, 0.187 µM.
Taken in the same sequence, the figures for `Nc1c(Cl)c(C2CC2)nn1CC(=O)N1CCC[C@@]2(C1)OC(=O)Nc1ccc(Cl)c(F)c12` [Example 29, (R)-1′-(2-(5-Amino-4-chloro-3-cyclopropyl-1H-pyrazol-1-yl)acetyl)-6-chloro-5-fluorospiro[benzo[d][1,3]oxazine-4,3'-piperidin]-2(1H)-one] were 0.0323 µM and 1.25 µM.
Consider `N#Cc1ccc(-c2cc(N)n(CC(=O)N3CC[C@@]4(C3)OC(=O)Nc3ccc(Cl)c(F)c34)n2)cc1` [Example 63, (R)-4-(5-Amino-1-(2-(6-chloro-5-fluoro-2-oxo-1,2-dihydrospiro[benzo[d][1,3]oxazine-4,3′-pyrrolidin]-l′-xl)-2-oxoethyl)-1H-pyrazol-3-yl)benzonitrile], for which the IC50 was found to be 0.0139 µM on Human plasma kallikrein and 0.613 µM on human factor XIa.
Taken in the same sequence, the figures for `COc1cccc(OC)c1-c1cc(N)n(CC(=O)N2CC[C@@]3(C2)OC(=O)Nc2ccc(Cl)c(F)c23)n1` [Example 51, (R)-1′-(2-(5-Amino-3-(2,6-dimethoxyphenyl)-1H-pyrazol-1-yl)acetyl)-6-chloro-5-fluorospiro[benzo[d][1,3]oxazine-4,3′-pyrrolidin]-2(1H)-one] were 0.0235 µM and 1.77 µM.
Taken in the same sequence, the figures for `CC1(c2cc(N)n(CC(=O)N3CC[C@@]4(C3)OC(=O)Nc3ccc(Cl)c(F)c34)n2)CC1` [Example 3, (R)-1′-(2-(5-Amino-3-(1-methylcyclopropyl)-1H-pyrazol-1-yl)acetyl)-6-chloro-5-fluorospiro[benzo[d][1,3]oxazine-4,3′-pyrrolidin]-2(1H)-one] were 0.0378 µM and 0.347 µM.
In the case of `Nc1cc(-c2ccc(F)cc2F)nn1CC(=O)N1CC[C@@]2(C1)OC(=O)Nc1ccc(Cl)c(F)c12` [Example 46, (R)-1′-(2-(5-Amino-3-(2,4-difluorophenyl)-1H-pyrazol-1-yl)acetyl)-6-chloro-5-fluorospiro[benzo[d][1,3]oxazine-4,3′-pyrrolidin]-2(1H)-one], the IC50 at Human plasma kallikrein was determined as 0.005 µM; on human factor XIa, 0.263 µM.
